From patent US20250197428A1, “INHIBITORS OF KIF18A AND USES THEREOF” (ACCENT THERAPEUTICS, INC., priority 2022, published 2025)
Where two headings read alike, the source gives them in different places.

Assays:
[1] = molecular target: KIF18A (Homo sapiens (Human), UniProt Q8NI77); experiment: KIF18A Biochemical Assay (ATPase, ADP-Glo)
[2] = test system: OVCAR-3 cells; experiment: In vitro anti-proliferative activity assay in cancer cell line OVCAR-3 (CellTiter-Glo, 4- or 7-day); format: cell-based; conditions: Homo sapiens, read-out: OVCAR-3 cellular antiproliferation assay IC50

KIF18A, sequence (Q8NI77 1-367): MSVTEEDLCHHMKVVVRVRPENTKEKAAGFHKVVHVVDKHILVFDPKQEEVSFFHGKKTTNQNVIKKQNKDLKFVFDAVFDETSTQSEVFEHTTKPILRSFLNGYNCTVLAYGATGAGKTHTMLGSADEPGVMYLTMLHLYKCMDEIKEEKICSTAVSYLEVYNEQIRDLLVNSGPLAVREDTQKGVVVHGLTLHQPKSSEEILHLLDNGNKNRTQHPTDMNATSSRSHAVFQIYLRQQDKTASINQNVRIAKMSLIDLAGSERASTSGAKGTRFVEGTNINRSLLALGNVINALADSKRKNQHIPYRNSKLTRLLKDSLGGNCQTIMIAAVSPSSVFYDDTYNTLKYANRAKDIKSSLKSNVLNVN
KIF18A, sequence (P02550 whole entry partner): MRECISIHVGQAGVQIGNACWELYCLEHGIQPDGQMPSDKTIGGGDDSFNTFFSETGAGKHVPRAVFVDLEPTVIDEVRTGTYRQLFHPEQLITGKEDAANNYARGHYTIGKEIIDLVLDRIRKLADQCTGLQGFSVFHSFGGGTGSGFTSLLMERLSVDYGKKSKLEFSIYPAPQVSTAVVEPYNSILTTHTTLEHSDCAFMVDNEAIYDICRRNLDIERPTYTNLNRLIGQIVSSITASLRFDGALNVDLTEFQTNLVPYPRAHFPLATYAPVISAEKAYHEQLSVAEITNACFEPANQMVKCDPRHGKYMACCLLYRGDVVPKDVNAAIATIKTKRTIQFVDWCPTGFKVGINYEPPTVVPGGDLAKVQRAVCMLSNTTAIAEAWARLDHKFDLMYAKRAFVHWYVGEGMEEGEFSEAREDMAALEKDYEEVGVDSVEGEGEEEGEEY
KIF18A, sequence (P02554 whole entry partner): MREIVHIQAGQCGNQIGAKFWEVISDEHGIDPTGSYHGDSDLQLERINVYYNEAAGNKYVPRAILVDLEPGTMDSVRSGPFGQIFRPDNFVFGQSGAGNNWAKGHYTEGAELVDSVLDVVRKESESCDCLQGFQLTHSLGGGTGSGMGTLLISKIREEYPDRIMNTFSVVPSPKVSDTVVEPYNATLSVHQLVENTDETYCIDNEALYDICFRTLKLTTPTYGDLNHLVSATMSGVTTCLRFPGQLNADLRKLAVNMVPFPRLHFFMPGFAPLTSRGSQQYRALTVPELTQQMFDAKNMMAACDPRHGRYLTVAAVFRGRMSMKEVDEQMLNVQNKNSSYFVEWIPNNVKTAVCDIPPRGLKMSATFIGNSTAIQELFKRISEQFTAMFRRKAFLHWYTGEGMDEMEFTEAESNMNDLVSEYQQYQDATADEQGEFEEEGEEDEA

Row | SMILES | IC50 [1] [nM] | IC50 ([2]; OVCAR-3, 168 h, 7-day assay) [nM] | IC50 ([2]; OVCAR-3, 96 h, 4-day assay) [nM]
1 | Cc1cc(NC(=O)c2ccc(NS(=O)(=O)CCO)cc2N2CC[C@]3(C(F)F)C[C@@H]3C2)nc(OC[C@H](O)C(F)(F)F)n1 [Example 67] | > 1000 | > 1000 | –
2 | Cc1cc(NC(=O)c2ccc(NS(=O)(=O)C(C)CO)cc2N2CC[Si](C)(C)CC2)nc(N2CC(F)(F)C2)c1 (centres unmarked) [Example 114] | < 100 | < 100 | –
3 | O=C(Nc1ccnc(N2CCC(F)(F)CC2)n1)c1c(F)cc(NS(=O)(=O)CCO)cc1N1CC[C@]2(C(F)F)C[C@@H]2C1 [Example 69] | < 100 | > 1000 | –
4 | Cc1cc(NC(=O)c2c(F)cc(NS(=O)(=O)CCO)c(F)c2N2CC[Si](C)(C)CC2)nc(N2CCC(F)(F)CC2)n1 [Example 116] | 500 to 1000 | > 1000 | –
5 | CC[Si]1(CC)CCN(c2ncccc2C(=O)Nc2cccc(S(=O)(=O)N3CCC(F)(F)CC3)c2)CC1 [Example 92] | – | > 1000 | –
6 | C[Si]1(C)CCN(c2cc(S(=O)(=O)CCO)ccc2C(=O)Nc2cccc(OC[C@@H](O)C(F)(F)F)n2)CC1 [Example 129] | < 100 | 100 to 500 | –
7 | C[Si]1(C)CCN(c2cc(S(=O)(=O)NCCO)ccc2C(=O)Nc2cccc(OC[C@H](O)C(F)(F)F)n2)CC1 [Example 132] | < 100 | < 100 | –
8 | C[Si]1(C)CCN(c2cc(NS(=O)(=O)CCO)ccc2C(=O)Nc2cccc(S(=O)(=O)C3CCCC3)n2)CC1 [Example 22] | 100 to 500 | – | < 100
9 | C[Si]1(C)CCN(c2cc(NS(=O)(=O)CCO)ccc2NC(=O)c2ccnc(N3CCC(F)(F)CC3)n2)CC1 [Example 23] | 100 to 500 | – | 100 to 500
10 | C[Si]1(C)CCN(c2ncccc2C(=O)Nc2cccc(S(=O)(=O)N3CCC(F)(F)CC3)c2)C1 [Example 93] | – | > 1000 | –
11 | C[Si]1(C)CCN(c2cc(NS(=O)(=O)NCCO)ccc2C(=O)Nc2cccc(OC[C@@H](O)C(F)(F)F)n2)CC1 [Example 125] | < 100 | 100 to 500 | –
12 | C[Si]1(C)CCN(c2cc(NS(=O)(=O)CCO)c(F)cc2C(=O)Nc2ccnc(N3CCC(F)(F)CC3)n2)CC1 [Example 13] | < 100 | – | 500 to 1000
13 | Cc1cc(NC(=O)c2ncc(NS(=O)(=O)CCO)cc2N2CC[Si](C)(C)CC2)nc(N2CCC(F)(F)CC2)n1 [Example 26] | < 100 | – | 100 to 500
14 | CC1CN(c2cccc(NC(=O)c3ccc(NS(=O)(=O)CCO)cc3N3CC[Si](C)(C)CC3)n2)CCO1 (centres unmarked) [Example 19] | < 100 | – | < 100
15 | C[Si]1(C)CCN(c2cc(NS(=O)(=O)CCO)c(F)cc2NC(=O)c2cccc(N3CCC(F)(F)CC3)n2)CC1 [Example 95] | – | – | < 100
16 | C[Si]1(C)CCN(c2cc(NS(=O)(=O)CCO)ccc2C(=O)Nc2ccnc(S(=O)(=O)C3CCCC3)n2)CC1 [Example 89] | – | 100 to 500 | –
17 | C[Si]1(C)CCN(c2cc(NS(=O)(=O)CCO)ccc2C(=O)Nc2cccc(N3CCC(F)(F)CC3)n2)CC1 [Example 3, N-(6-(4,4-difluoropiperidin-1-yl)pyridin-2-yl)-2-(4,4-dimethyl-1,4-azasilinan-1-yl)-4-((2-hydroxyethyl)sulfonamido)benzamide] | < 100 | – | < 100
18 | CC1CN(c2cccc(NC(=O)c3ccc(S(=O)(=O)NCCO)cc3N3CC[Si](C)(C)CC3)n2)CCO1 (centres unmarked) [Example 18] | < 100 | – | < 100
19 | C[C@@]12CCN(c3ncccc3C(=O)Nc3cccc(S(=O)(=O)N4CCC(F)(F)CC4)c3)C[C@@H]1C2 [Example 47] | > 1000 | – | –
20 | O=C(Nc1ccnc(N2CCC(F)(F)CC2)n1)c1ccc2c(cnn2CCO)c1N1CCC2(CC1)CC2 [Example 25] | > 1000 | – | –
21 | C[C@]12CCN(c3ncccc3C(=O)Nc3cccc(S(=O)(=O)N4CCC(F)(F)CC4)c3)C[C@H]1C2 [Example 46] | – | – | > 1000
22 | CC12CCN(c3ncccc3C(=O)Nc3cccc(S(=O)(=O)N4CCC(F)(F)CC4)c3)CC1C2 (centres unmarked) [Example 45] | – | – | > 1000
23 | O=C(Nc1cccc(S(=O)(=O)N2CCC(F)(F)CC2)c1)c1cccnc1N1CCC2CC2C1 (centres unmarked) [Example 44] | > 1000 | – | –
24 | C[C@H]1CN(c2nccc(C(=O)Nc3ccc(NS(=O)(=O)CCO)cc3N3CC[Si](C)(C)CC3)n2)CCO1 [Example 91] | – | 100 to 500 | –
25 | CC(C)(C)NS(=O)(=O)c1cccc(NC(=O)c2ccc(S(=O)(=O)C3(C)COC3)cc2N2CC[Si](C)(C)CC2)c1 [Example 24] | – | – | 100 to 500

Second part, led by results:

Row | IC50 [1] [nM] | IC50 ([2]; OVCAR-3, 168 h, 7-day assay) [nM] | SMILES | IC50 ([2]; OVCAR-3, 96 h, 4-day assay) [nM]
26 | < 100 | < 100 | Cc1cc(NC(=O)c2ccc(NS(=O)(=O)CCO)cc2N2CC[C@]3(C(F)F)C[C@@H]3C2)nc(N2CCC(F)(F)CC2)c1 [Example 65] | –
27 | < 100 | – | Cc1cc(NC(=O)c2ccc(NS(=O)(=O)NCCO)cc2N2CC[C@@]3(C)C[C@H]3C2)nc(N2CCC(F)(F)CC2)n1 [Example 42] | > 1000
28 | 100 to 500 | > 1000 | Cc1cc(NC(=O)c2ccc(NS(=O)(=O)CCO)cc2N2CC[C@]3(C(C)(F)F)C[C@@H]3C2)nc(N2CCC(F)(F)CC2)n1 [Example 79] | –
29 | < 100 | – | Cc1cc(NC(=O)c2ccc(NS(C)(=O)=O)cc2N2CC[C@@]3(C)C[C@H]3C2)nc(N2CCC(F)(F)CC2)n1 [Example 32] | > 1000
30 | < 100 | – | Cc1cc(NC(=O)c2ccc(NS(=O)(=O)NCCO)cc2N2CC[C@]3(C)C[C@@H]3C2)nc(N2CCC(F)(F)CC2)n1 [Example 43] | > 1000
31 | – | 100 to 500 | Cc1cc(NC(=O)c2c(F)cc(NS(=O)(=O)CCO)cc2N2CC[C@]3(C)C[C@@H]3C2)nc(N2CCC(F)(F)CC2)n1 (single isomer, unassigned) [Example 31a] | –
32 | 100 to 500 | 100 to 500 | Cc1cc(NC(=O)c2ccc(S(=O)(=O)NCCO)cc2N2CC[C@]3(C(F)F)C[C@@H]3C2)nc(N2CCC(F)(F)CC2)n1 [Example 77] | –
33 | – | < 100 | Cc1cc(NC(=O)c2ccc(NS(=O)(=O)CCO)cc2N2CC[C@]3(C)C[C@@H]3C2)nc(N2CCC(F)(F)CC2)n1 [Example 62] | –
34 | 100 to 500 | > 1000 | Cc1cc(NC(=O)c2c(F)cc(NS(=O)(=O)CCO)cc2N2CC[C@]3(C(F)F)C[C@@H]3C2)nc(N2CCC(F)(F)CC2)n1 [Example 71] | –
35 | < 100 | 100 to 500 | Cc1cc(NC(=O)c2ccc(NS(=O)(=O)CCO)cc2N2CC[C@]3(F)CC[C@@H]3C2)nc(N2CCC(F)(F)CC2)n1 (single isomer, unassigned) [Example 50a] | –
36 | 100 to 500 | – | Cc1cc(NC(=O)c2ccc(NS(=O)(=O)CCO)cc2N2CC[C@@]3(CO)C[C@H]3C2)nc(N2CCC(F)(F)CC2)n1 [Example 39] | > 1000
37 | < 100 | – | Cc1cc(NC(=O)c2ccc(NS(C)(=O)=O)cc2N2CC[C@]3(C)C[C@@H]3C2)nc(N2CCC(F)(F)CC2)n1 [Example 33] | 100 to 500
38 | < 100 | 100 to 500 | COC[C@]12CCN(c3cc(NS(=O)(=O)CCO)ccc3C(=O)Nc3cc(C)nc(N4CCC(F)(F)CC4)n3)C[C@H]1C2 (single isomer, unassigned) [Example 49a] | –
39 | – | < 100 | Cc1cc(NC(=O)c2ccc(NS(=O)(=O)CCO)cc2N2CC[C@@]3(C)C[C@H]3C2)nc(N2CCC(F)(F)CC2)n1 [Example 63] | –
40 | – | 100 to 500 | Cc1cc(NC(=O)c2c(F)cc(NS(=O)(=O)CCO)cc2N2CC[C@@]3(C)C[C@H]3C2)nc(N2CCC(F)(F)CC2)n1 (single isomer, unassigned) [Example 31b] | –
